Activity calls are given as the source filed them. No cut-off for these calls is given here. Peptide text beside a SMILES is read from it.

We go through six compounds from ChEMBL document CHEMBL4312012, “Development of a novel hybrid antimicrobial peptide for targeted killing of Pseudomonas aeruginosa” (Eur J Med Chem, 2020).

Data set [1] deals with Escherichia coli. Kind of data set: Binding affinity to cell surface of Escherichia coli KCTC 2223 at 10 uM incubated for 1 hr by ELISA. It is filed as organism-based. (An ELISA detects its analyte on a solid surface through an enzyme-linked reagent.)
Data set [2] relates to Salmonella typhimurium. Kind of data set: Binding affinity to cell surface of Salmonella typhimurium KCTC 2370 at 10 uM incubated for 1 hr by ELISA. It is filed as organism-based. The settings on record: Salmonella enterica subsp. enterica serovar Typhimurium.
The subject of data set [3] is Staphylococcus aureus. Nature of the data set: Binding affinity to cell surface of Staphylococcus aureus ATCC 15752 at 10 uM incubated for 1 hr by ELISA. It is filed as organism-based.
For data set [4], the system named is Candida albicans. Kind of data set: Binding affinity to cell surface of Candida albicans ATCC 10231 at 10 uM incubated for 1 hr by ELISA. It is filed as organism-based.
Data set [5] deals with Pseudomonas aeruginosa. Nature of the data set: Binding affinity to cell surface of Pseudomonas aeruginosa H103 at 10 uM incubated for 1 hr by ELISA. The data set is classed as organism-based.
Data set [6] deals with T1, Outer membrane porin F (Pseudomonas aeruginosa (strain ATCC 15692 / DSM 22644 / CIP 104116 / JCM14847 / LMG 12228 / 1C / PRS 101 / PAO1)) (UniProt P13794).
T1 sequence (whole entry): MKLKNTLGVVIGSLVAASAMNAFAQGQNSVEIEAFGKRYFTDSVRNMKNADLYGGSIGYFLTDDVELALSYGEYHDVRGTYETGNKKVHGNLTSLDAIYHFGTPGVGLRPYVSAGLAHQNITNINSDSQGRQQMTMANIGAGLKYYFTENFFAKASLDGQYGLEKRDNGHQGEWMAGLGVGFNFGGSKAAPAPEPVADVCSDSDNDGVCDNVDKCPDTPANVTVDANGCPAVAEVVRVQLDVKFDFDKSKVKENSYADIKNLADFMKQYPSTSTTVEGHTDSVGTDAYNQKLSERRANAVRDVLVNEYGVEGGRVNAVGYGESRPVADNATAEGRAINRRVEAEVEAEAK
Nature of the data set: Binding affinity to OprF in Pseudomonas aeruginosa H103 at 10 uM incubated for 1 hr by ELISA.

Data set [7] has as its system Outer membrane porin F (Pseudomonas aeruginosa (strain ATCC 15692 / DSM 22644 / CIP 104116 / JCM14847 / LMG 12228 / 1C / PRS 101 / PAO1)), P13794 [UNDEFINED MUTATION]. Nature of the data set: Binding affinity to OprF mutant in Pseudomonas aeruginosa H636 at 10 uM incubated for 1 hr by ELISA.
The target of data set [8] is T1, Outer membrane porin F (Pseudomonas aeruginosa (strain ATCC 15692 / DSM 22644 / CIP 104116 / JCM14847 / LMG 12228 / 1C / PRS 101 / PAO1)). Kind of data set: Binding affinity to recombinant Pseudomonas aeruginosa OprF expressed in Escherichia coli BL21 (DE3) at 10 uM incubated for 1 hr by ELISA.
The subject of data set [9] is Pseudomonas aeruginosa. Kind of data set: Antibacterial activity against multidrug resistant Pseudomonas aeruginosa H103 infected in BALB/c mouse infected assessed as survival rate at 25 mg/kg, ip measured on day 7. The following applies: 168 h. The data set is classed as functional.
The target of data set [10] is T1, Outer membrane porin F (Pseudomonas aeruginosa (strain ATCC 15692 / DSM 22644 / CIP 104116 / JCM14847 / LMG 12228 / 1C / PRS 101 / PAO1)). Nature of the data set: Binding affinity to OprF in Pseudomonas aeruginosa H103 assessed as binding affinity to bacterial cell surface at 1 uM incubated for 5 mins by confocal laser scanning microscopy.
Data set [11] deals with Escherichia coli. Kind of data set: Binding affinity to cell surface of Escherichia coli KCTC 2223 at 1 uM incubated for 5 mins by confocal laser scanning microscopy. It is filed as organism-based.
For data set [12], the system named is Salmonella typhimurium. Kind of data set: Binding affinity to cell surface of Salmonella typhimurium KCTC 2370 at 1 uM incubated for 5 mins by confocal laser scanning microscopy. The data set is classed as organism-based. The following applies: Salmonella enterica subsp. enterica serovar Typhimurium.
Data set [13] has as its system Pseudomonas aeruginosa. Nature of the data set: Antibacterial activity against Pseudomonas aeruginosa assessed as reduction in bacterial cell growth preincubated for 3 hrs followed by medium replenishment further incubated for 18 hrs by serial microdilution method. It is filed as functional. In general terms: Dilution methods test growth across graded concentrations, often in twofold steps.

For data set [14], the system named is Escherichia coli. Nature of the data set: Antibacterial activity against Escherichia coli KCTC 2223 assessed as reduction in bacterial cell growth preincubated for 3 hrs followed by medium replenishment further incubated for 18 hrs by serial microdilution method. The data set is classed as functional.
In data set [15] the test system is Salmonella typhimurium. Nature of the data set: Antibacterial activity against Salmonella typhimurium KCTC 2370 assessed as reduction in bacterial cell growth preincubated for 3 hrs followed by medium replenishment further incubated for 18 hrs by serial microdilution method. It is filed as functional, Salmonella enterica subsp. enterica serovar Typhimurium. The following applies: Salmonella enterica.

Data set [16] deals with Staphylococcus aureus. Nature of the data set: Antibacterial activity against Staphylococcus aureus ATCC 15752 assessed as reduction in bacterial cell growth preincubated for 3 hrs followed by medium replenishment further incubated for 18 hrs by serial microdilution method. It is filed as functional.
Data set [17] has as its system Candida albicans. Nature of the data set: Antifungal activity against Candida albicans ATCC 10231 assessed as reduction in fungal cell growth preincubated for 3 hrs followed by medium replenishment further incubated for 18 hrs by serial microdilution method. The data set is classed as functional.
In data set [18] the test system is Pseudomonas aeruginosa. Nature of the data set: Antibacterial activity against multidrug resistant Pseudomonas aeruginosa H103 infected in BALB/c mouse infected assessed as survival rate at 15 mg/kg, ip measured on day 7. It is filed as functional. The following applies: 168 h.
The test system of data set [19] is Outer membrane porin F (Pseudomonas aeruginosa (strain ATCC 15692 / DSM 22644 / CIP 104116 / JCM14847 / LMG 12228 / 1C / PRS 101 / PAO1)), P13794 [UNDEFINED MUTATION]. Nature of the data set: Binding affinity to OprF mutant in Pseudomonas aeruginosa H636 at 1 uM incubated for 5 mins by confocal laser scanning microscopy.
In data set [20] the target is T1, Outer membrane porin F (Pseudomonas aeruginosa (strain ATCC 15692 / DSM 22644 / CIP 104116 / JCM14847 / LMG 12228 / 1C / PRS 101 / PAO1)). Nature of the data set: Binding affinity to OprF in Pseudomonas aeruginosa H103 assessed as binding affinity to bacterial cell surface at 10 uM incubated for 1 hr by ELISA.
Data set [21] deals with Pseudomonas aeruginosa. Kind of data set: Antibacterial activity against Pseudomonas aeruginosa assessed as reduction in bacterial cell growth in presence of GNU7 preincubated for 3 hrs followed by medium replenishment further incubated for 18 hrs by serial microdilution method. The data set is classed as functional.
The subject of data set [22] is Escherichia coli. Nature of the data set: Antibacterial activity against Escherichia coli KCTC 2223 assessed as reduction in bacterial cell growth in presence of GNU7 preincubated for 3 hrs followed by medium replenishment further incubated for 18 hrs by serial microdilution method. The data set is classed as functional.
The test system of data set [23] is Salmonella typhimurium. Kind of data set: Antibacterial activity against Salmonella typhimurium KCTC 2370 assessed as reduction in bacterial cell growth in presence of GNU7 preincubated for 3 hrs followed by medium replenishment further incubated for 18 hrs by serial microdilution method. The following applies: Salmonella enterica. It is filed as functional, Salmonella enterica subsp. enterica serovar Typhimurium.

The subject of data set [24] is Staphylococcus aureus. Kind of data set: Antibacterial activity against Staphylococcus aureus ATCC 15752 assessed as reduction in bacterial cell growth in presence of GNU7 preincubated for 3 hrs followed by medium replenishment further incubated for 18 hrs by serial microdilution method. It is filed as functional.
Data set [25] relates to Candida albicans. Nature of the data set: Antifungal activity against Candida albicans ATCC 10231 assessed as reduction in fungal cell growth in presence of GNU7 preincubated for 3 hrs followed by medium replenishment further incubated for 18 hrs by serial microdilution method. It is filed as functional.
For data set [26], the system named is Erythrocyte. Nature of the data set: Hemolytic activity in human RBC incubated for 30 mins. It is filed as ADME, cell-based. The settings on record: 0.5 h.
Data set [27] has as its system Pseudomonas aeruginosa. Kind of data set: Antibacterial activity against Pseudomonas aeruginosa H103 co-cultured with Escherichia coli KCTC 2223 assessed as reduction in bacterial load by measuring decrease in colony forming units at 2 uM incubated for 30 mins by time-kill assay. It is filed as functional.
For data set [28], the system named is Escherichia coli. Kind of data set: Antibacterial activity against Escherichia coli KCTC 2223 co-cultured with Pseudomonas aeruginosa H103 assessed as reduction in bacterial load by measuring decrease in colony forming units at 2 uM incubated for 30 mins by time-kill assay. It is filed as functional.
Data set [29] relates to Pseudomonas aeruginosa. Nature of the data set: Antibacterial activity against Pseudomonas aeruginosa H103 co-cultured with Salmonella typhimurium KCTC 2370 assessed as reduction in bacterial load by measuring decrease in colony forming units at 2 uM incubated for 30 mins by time-kill assay. It is filed as functional.
Data set [30] relates to Salmonella typhimurium. Kind of data set: Antibacterial activity against Salmonella typhimurium KCTC 2370 co-cultured with Pseudomonas aeruginosa H103 assessed as reduction in bacterial load by measuring decrease in colony forming units at 2 uM incubated for 30 mins by time-kill assay. It is filed as functional, organism-based. The settings on record: Salmonella enterica subsp. enterica serovar Typhimurium.

In data set [31] the test system is Mus musculus. Nature of the data set: In vivo antibacterial activity against multidrug resistant Pseudomonas aeruginosa H103 infected in BALB/c mouse assessed as reduction in bacterial load by measuring decrease in colony forming units in liver at 25 mg/kg, ip measured after 12 hrs. It is filed as functional.
The test system of data set [32] is Mus musculus. Nature of the data set: In vivo antibacterial activity against multidrug resistant Pseudomonas aeruginosa H103 infected in BALB/c mouse assessed as reduction in bacterial load by measuring decrease in colony forming units in kidney at 25 mg/kg, ip measured after 12 hrs. It is filed as functional.
Data set [33] deals with Mus musculus. Kind of data set: In vivo antibacterial activity against multidrug resistant Pseudomonas aeruginosa H103 infected in BALB/c mouse assessed as reduction in bacterial load by measuring decrease in colony forming units in spleen at 25 mg/kg, ip measured after 12 hrs. It is filed as functional.

With `CC(C)C[C@H](NC(=O)[C@H](CO)NC(=O)[C@H](CO)NC(=O)[C@H](CS)NC(=O)[C@@H](N)CO)C(=O)N[C@H](C(=O)N[C@H](C(=O)N[C@@H](CC(C)C)C(=O)N[C@@H](CCCNC(=N)N)C(=O)N1CCC[C@H]1C(=O)N[C@@H](CS)C(=O)NCC(=O)O)[C@@H](C)O)[C@@H](C)O` (H-SCSSLTTLRPCG-OH), the outcome in [1], in data set [2], in data set [3], in data set [4], in [5] and in [6] was Active. Besides, the result in data set [7] was Active. In addition, the outcome in data set [8] was inactive.

With `C[C@@H](O)[C@H]1C(=O)N2C(C(=O)O)=C(S[C@@H]3CN[C@H](C(=O)N(C)C)C3)[C@H](C)[C@H]12` [MEROPENEM], the survival at 25 mg/kg in data set [9] came out at 25%.

For orientation: MIC means the least concentration at which growth counts as inhibited. For the compound H-RLLRPLLQLLKQKLR-OH, the result in [10], in data set [11], in data set [12] and in data set [19] was inactive. Moreover, the MIC stood at 32 µM in [13]; 8 µM in [14]; 16 µM in data set [15]; 4 µM in [16]; 16 µM in [17]. For the same compound, in [18], the survival at 15 mg/kg was found to be 62.5%.

For the compound H-SQRKLAAKLTSK-OH, the outcome in data set [20], in [10], in [6] and in [8] was Active. Further, the outcome in data set [1], in data set [2], in data set [3], in data set [4], in data set [11] and in data set [12] was inactive. For the same compound, the outcome in data set [7] and in [19] was inactive. In addition, the MIC in data set [13] was more than 32 µM; in [14] it was more than 32 µM; in data set [15], more than 32 µM; in data set [16] it was more than 32 µM; in data set [17], more than 32 µM; in data set [21], 32 µM. The MIC came to 8 µM in data set [22], 16 µM in data set [23], 4 µM in data set [24] and 16 µM in [25].

Turning to H-SQRKLAAKLTSKGGGRLLRPLLQLLKQKLR-OH, the result in [10] was Active. The outcome in data set [11], in [12], in [30] and in [19] was inactive. The MIC is 2 µM in data set [13]; 1 µM in [14]; 2 µM in data set [15]; 2 µM in [16]; 8 µM in data set [17]. In addition, the Activity entry in data set [26] is listed as “Non-Toxic”; in data set [27], 2.7 log10CFU; in data set [28], 0.6 log10CFU; in [29], 1.4 log10CFU; in [31], 3 log10CFU; in [32], 3.6 log10CFU. Besides, the Activity in [33] amounted to 2.8 log10CFU. Besides, the survival at 25 mg/kg in data set [9] came out at 100%.

For H-VILTGPEAEYFW-OH, the outcome in data set [5] was inactive.
